Experimental data from ChEMBL document CHEMBL1137795, “Bioactive compounds from aquatic and terrestrial sources” (J Nat Prod, 1990).
≈ marks a conversion by molar mass, not a printed value. Calls of active or inactive are those of the source. The calls are words filed in the database; no cut-off is given here. Numbered stars: 1 amine (or outer) side, 2 acyl side, 3 side chain; on linkers, the order of the positions; unused ones are H or OH. Bridge positions count the residues as written; N and C are the ends. Square brackets hold non-standard residues; d marks the D form. Peptide text beside a SMILES is read from it. X1 = CC[C@H](C)[C@@H](N[*:1])[C@@H](O)CC(=O)O[C@H](C(=O)[C@H](C)C(=O)[*:2])C(C)C; NMeY = CN[C@@H](Cc1ccc(O)cc1)C(=O)O; dNMeL = CN[C@H](CC(C)C)C(=O)O; Lac = C[C@H](O)C(=O)O

Legend:
L1210 = test: Cytotoxicity against mouse L1210 cells; type: functional, cell-based
P388 [1] = test: In vivo antitumor activity against mouse P388 cells at 250 ug/kg relative to control; type: functional
[2] = system: Vesicular stomatitis virus; test: Antiviral activity against VSV assessed as reduction in plaque formation at 20 ng; type: functional, organism-based
Human alphaherpesvirus 1 [3] = test: Antiviral activity against HSV1 assessed as reduction in plaque formation at 780 ng; type: functional, organism-based
Human alphaherpesvirus 1 [4] = test: Antiviral activity against HSV1 assessed as reduction in plaque formation at 20 ng; type: functional, organism-based
Human alphaherpesvirus 1 [5] = test: Antiviral activity against HSV1 assessed as reduction in plaque formation at 30 ng; type: functional, organism-based
[6] = system: Vesicular stomatitis virus; test: Antiviral activity against VSV assessed as reduction in plaque formation at 30 ng; type: functional, organism-based
[7] = system: Vesicular stomatitis virus; test: Antiviral activity against VSV assessed as reduction in plaque formation at 100 ug; type: functional, organism-based
[8] = system: Vesicular stomatitis virus; test: Antiviral activity against VSV assessed as reduction in plaque formation at 100 ng; type: functional, organism-based
Human alphaherpesvirus 1 [9] = test: Antiviral activity against HSV1 assessed as reduction in plaque formation at 100 ug; type: functional, organism-based
Human alphaherpesvirus 1 [10] = test: Antiviral activity against HSV1 assessed as reduction in plaque formation at 10 ug; type: functional, organism-based
B16 = test: In vivo antitumor activity against mouse B16 cells at 10 ug/kg relative to control; type: functional
P388 [11] = test: In vivo antitumor activity against mouse P388 cells at 3.8 ug/kg relative to control; type: functional
P388 [12] = test: In vivo antitumor activity against mouse P388 cells at 15 ug/kg relative to control; type: functional

`CC[C@H](C)[C@H]1NC(=O)[C@@H](NC(=O)[C@@H](CC(C)C)NC)[C@@H](C)OC(=O)[C@H](Cc2ccc(OC)cc2)N(C)C(=O)[C@@H]2CCCN2C(=O)[C@H](CC(C)C)NC(=O)[C@@H](C)C(=O)[C@H](C(C)C)OC(=O)C[C@@H]1O` [DIDEMNIN A] (H-[dNMeL]T[X1]LP[NMeY](Me); ester 2-C) showed an IC50 (L1210) of 14 ng/mL (≈ 14.8 nM).
`CCCCCCC[C@@H](O)CC(=O)N[C@@H](CCC(N)=O)C(=O)N[C@@H](CCC(N)=O)C(=O)N[C@@H](CCC(=O)O)C(=O)O[C@@H](C)C(=O)N1CCC[C@H]1C(=O)N(C)[C@H](CC(C)C)C(=O)N[C@@H]1C(=O)N[C@@H]([C@@H](C)CC)[C@@H](O)CC(=O)O[C@@H](C(C)C)C(=O)[C@H](C)C(=O)N[C@@H](CC(C)C)C(=O)N2CCC[C@H]2C(=O)N(C)[C@@H](Cc2ccc(OC)cc2)C(=O)O[C@@H]1C` [DIDEMNIN X] showed an IC50 (L1210) of 4.4 ng/mL (≈ 2.64 nM).
With `CC[C@H](C)[C@@H]1NC(=O)[C@@H](NC(=O)[C@@H](CC(C)C)NC)[C@@H](C)OC(=O)[C@H](Cc2ccc(OC)cc2)N(C)C(=O)[C@@H]2CCCN2C(=O)[C@H](CC(C)C)NC(=O)[C@@H](C)C(O)[C@H](C(C)C)OC(=O)C[C@@H]1O` (some centres undefined) [DIHYDRODIDEMNIN A] the IC50 (L1210) was 520 ng/mL (≈ 550 nM).
In the case of `CC[C@H](C)[C@@H]1NC(=O)[C@@H](NC(=O)[C@@H](CC(C)C)N(C)C(=O)[C@@H]2CCCN2C(=O)[C@H](C)OC(C)=O)[C@@H](C)OC(=O)[C@H](Cc2ccc(OC)cc2)N(C)C(=O)[C@@H]2CCCN2C(=O)[C@H](CC(C)C)NC(=O)[C@@H](C)C(=O)[C@H](C(C)C)OC(=O)C[C@@H]1OC(C)=O`, the IC50 (L1210) is reported as 1.6 ng/mL (≈ 1.34 nM).
Compound `CC[C@H](C)[C@@H]1NC(=O)[C@@H](N2CN(C)[C@H](CC(C)C)C2=O)[C@@H](C)OC(=O)[C@H](Cc2ccc(OC)cc2)N(C)C(=O)[C@@H]2CCCN2C(=O)[C@H](CC(C)C)NC(=O)[C@@H](C)C(=O)[C@H](C(C)C)OC(=O)C[C@@H]1O` [METHYLENE DIDEMNIN A] has an IC50 (L1210) of 6.5 ng/mL (≈ 6.8 nM).
Compound `CC[C@H](C)[C@@H]1NC(=O)[C@@H](NC(=O)[C@@H](CC(C)C)N(C)C(C)=O)[C@@H](C)OC(=O)[C@H](Cc2ccc(OC)cc2)N(C)C(=O)[C@@H]2CCCN2C(=O)[C@H](CC(C)C)NC(=O)[C@@H](C)C(=O)[C@H](C(C)C)OC(=O)C[C@@H]1O` [N-ACETYLDIDEMNIN A] has an IC50 (L1210) of 2.4 ng/mL (≈ 2.44 nM).
`COc1cc2c(cc1O)CCN[C@]21CS[C@@H]2c3c(OC(C)=O)c(C)c4c(c3[C@H](COC1=O)N1C[C@@H]3Cc5cc(C)c(OC)c(O)c5[C@H]([C@H]21)N3C)OCO4` [ECTEINASCIDIN 745] showed a T/C (P388 [1]) of 111% and an IC50 (L1210) of 88 ng/mL (≈ 118 nM).
For `CC(=O)O[C@H]1C[C@]2(C)[C@H]3[C@H](O)C(=O)[C@]4(C)[C@@H](c5ccc(=O)oc5)CC[C@]4(O)[C@@H]3CC[C@]2(O)C[C@H]1OC(C)=O`, the AC50 [2] was “Not Active”, the Activity (Human alphaherpesvirus 1 [3]) was “Active” and the Activity (Human alphaherpesvirus 1 [4]) was “inactive”.
In the case of `CC(=O)O[C@H]1C[C@]2(C)[C@H]3[C@H](O)C(=O)[C@]4(C)[C@@H](c5ccc(=O)oc5)CC[C@]4(O)[C@@H]3CC[C@]2(O)C[C@H]1OC(=O)C(C)C`, the Activity (Human alphaherpesvirus 1 [5]) is reported as “inactive” and the Activity [6] is reported as “inactive”.
`CC[C@H](C)[C@@H]1NC(=O)[C@@H](NC(=O)[C@@H](CC(C)C)N(C)C(=O)[C@@H]2CCCN2C(=O)[C@H](C)OC(=O)[C@H](CCC(=O)O)NC(=O)[C@H](CCC(N)=O)NC(=O)[C@H](CCC(N)=O)NC(=O)[C@@H](N)CCC(N)=O)[C@@H](C)OC(=O)[C@H](Cc2ccc(OC)cc2)N(C)C(=O)[C@@H]2CCCN2C(=O)[C@H](CC(C)C)NC(=O)[C@@H](C)C(=O)[C@H](C(C)C)OC(=O)C[C@@H]1O` [DIDEMNIN D] gave an IC50 (L1210) of 5 ng/mL (≈ 3.08 nM).
`NC(=O)c1ncn([C@@H]2O[C@H](CO)[C@@H](O)[C@H]2O)n1` was tested, and the Activity [7] was “Active”.
`CCC(=O)O[C@@H]1C[C@@]2(O)CC[C@@H]3[C@H]([C@H](O)C(=O)[C@]4(C)[C@@H](c5ccc(=O)oc5)CC[C@]34O)[C@@]2(C)C[C@@H]1OC(C)=O` was tested, and the Activity (Human alphaherpesvirus 1 [5]) was “inactive”, the Activity [6] was “inactive” and the Activity [8] was “inactive”.
`Nc1nc2c(ncn2COCCO)c(=O)[nH]1` was tested, and the Activity (Human alphaherpesvirus 1 [9]) was “Active” and the Activity (Human alphaherpesvirus 1 [10]) was “Active”.
For `Nc1ncnc2c1ncn2[C@@H]1O[C@H](CO)[C@@H](O)[C@@H]1O`, the Activity (Human alphaherpesvirus 1 [9]) was “Active” and the Activity (Human alphaherpesvirus 1 [10]) was “inactive”.
`COc1cc2c(cc1O)CCN[C@]21CS[C@@H]2c3c(OC(C)=O)c(C)c4c(c3[C@H](COC1=O)N1[C@@H]2[C@@H]2N[C@@H](Cc3cc(C)c(OC)c(O)c32)[C@@H]1O)OCO4` [ECTEINASCIDIN 729] was tested, and the T/C (B16) was 246% and the T/C (P388 [11]) was 214%.
In the case of `COc1cc2c(cc1O)CCN[C@]21CS[C@@H]2c3c(OC(C)=O)c(C)c4c(c3[C@H](COC1=O)N1[C@@H]2[C@H]2c3c(cc(C)c(OC)c3O)C[C@@H]([C@@H]1O)N2C)OCO4` [TRABECTEDIN], the T/C (P388 [12]) is reported as 167% and the IC50 (L1210) is reported as 0.5 ng/mL (≈ 0.656 nM).
For `CC[C@H](C)[C@H]1NC(=O)[C@@H](NC(=O)[C@@H](CC(C)C)N(C)C(=O)[C@H](C)O)[C@@H](C)OC(=O)[C@H](Cc2ccc(OC)cc2)N(C)C(=O)[C@@H]2CCCN2C(=O)[C@H](CC(C)C)NC(=O)[C@@H](C)C(=O)[C@H](C(C)C)OC(=O)C[C@@H]1O` [DIDEMNIN C] (H-[Lac][dNMeL]T[X1]LP[NMeY](Me); ester 3-C), the IC50 (L1210) was 11 ng/mL (≈ 10.8 nM).
For `CC[C@H](C)[C@@H]1NC(=O)[C@@H](NC(=O)[C@@H](CC(C)C)N(C)C(=O)[C@@H]2CCCN2C(=O)[C@H](C)OC(=O)[C@H](CCC(=O)O)NC(=O)[C@H](CCC(N)=O)NC(=O)[C@@H](N)CCC(N)=O)[C@@H](C)OC(=O)[C@H](Cc2ccc(OC)cc2)N(C)C(=O)[C@@H]2CCCN2C(=O)[C@H](CC(C)C)NC(=O)[C@@H](C)C(=O)[C@H](C(C)C)OC(=O)C[C@@H]1O` [DIDEMNIN E], the IC50 (L1210) was 3 ng/mL (≈ 2 nM).
`CC[C@H](C)[C@@H]1NC(=O)[C@@H](NC(=O)[C@@H](CC(C)C)N(C)C=O)[C@@H](C)OC(=O)[C@H](Cc2ccc(OC)cc2)N(C)C(=O)[C@@H]2CCCN2C(=O)[C@H](CC(C)C)NC(=O)[C@@H](C)C(=O)[C@H](C(C)C)OC(=O)C[C@@H]1O` [DIDEMNIN G] was tested, and the IC50 (L1210) was 6 ng/mL (≈ 6.18 nM).
`CC[C@H](C)[C@@H]1NC(=O)[C@@H](NC(=O)[C@@H](CC(C)C)N(C)C(C)=O)[C@@H](C)OC(=O)[C@H](Cc2ccc(OC)cc2)N(C)C(=O)[C@@H]2CCCN2C(=O)[C@H](CC(C)C)NC(=O)[C@@H](C)C(=O)[C@H](C(C)C)OC(=O)C[C@@H]1OC(C)=O` [N,O-DIACETYLDIDEMNIN A] was tested, and the IC50 (L1210) was 15 ng/mL (≈ 14.6 nM).
In the case of `CC[C@H](C)[C@@H]1NC(=O)[C@@H](NC(=O)[C@@H](CC(C)C)N(C)C(=O)[C@@H]2CCCN2C(=O)[C@H](C)OC(C)=O)[C@H](C)OC(=O)[C@H](Cc2ccc(OC)cc2)N(C)C(=O)[C@@H]2CCCN2C(=O)[C@H](CC(C)C)NC(=O)[C@@H](C)C(=O)[C@H](C(C)C)OC(=O)C[C@@H]1O` [NORDIDEMNIN B], the IC50 (L1210) is reported as 7.8 ng/mL (≈ 6.76 nM).
`CCCCCCC[C@@H](O)CC(=O)N[C@@H](CCC(N)=O)C(=O)N[C@@H](CCC(N)=O)C(=O)N[C@@H](CCC(N)=O)C(=O)N[C@@H](CCC(=O)O)C(=O)O[C@@H](C)C(=O)N1CCC[C@H]1C(=O)N(C)[C@H](CC(C)C)C(=O)N[C@@H]1C(=O)N[C@@H]([C@@H](C)CC)[C@@H](O)CC(=O)O[C@@H](C(C)C)C(=O)[C@H](C)C(=O)N[C@@H](CC(C)C)C(=O)N2CCC[C@H]2C(=O)N(C)[C@@H](Cc2ccc(OC)cc2)C(=O)O[C@@H]1C` [DIDEMNIN Y] gave an IC50 (L1210) of 5.6 ng/mL (≈ 3.12 nM).
`CC(=O)O[C@@H]1C[C@@]2(O)CC[C@@H]3[C@H]([C@H](O)C(=O)[C@]4(C)[C@@H](c5ccc(=O)oc5)CC[C@]34O)[C@@]2(C)C[C@@H]1O` was tested, and the Activity [8] was “inactive”.
For `CC(=O)O[C@H]1C[C@]2(C)[C@H]3[C@H](O)C(=O)[C@]4(C)[C@@H](c5ccc(=O)oc5)CC[C@]4(O)[C@@H]3CC[C@]2(O)C[C@H]1O`, the Activity [8] was “inactive”.
